How the values were obtained:
[1] = molecular target: CDK12 (Homo sapiens, UniProt Q9NYV4); assay: Western blot degradation of CDK12 (Example 2); type: cell-based; parameters: degradation of CDK12/13 protein in leukemia cells KASUMI-1, MV4-11, and Jurkat; endogenous in cells; conditions: DC50 classes, cell line not given; for DC50: read-out: CDK12 degradation Activity
Protocol: (§1) Western blot was used to determine the degradation of CDK12/13 protein in leukemia cells KASUMI-1, MV4-11, and Jurkat. The two compounds with the best degradation effects were further validated for their ability to degrade CDK12/13 protein in breast cancer cells MDA-MB-231 using a concentration gradient.
(§2) • Cell lines: KASUMI-1, MV4-11, Jurkat, or MDA-MB-231 • Culture medium: DMEM/RIPM-1640+10% Hyclone serum • Compound dissolution method: Compounds were dissolved in DMSO to prepare a 50 mM stock solution, and then diluted to the corresponding concentrations.
(§3) (1) In vitro cell culture: The selected cells were cultured in a 37 °C constant temperature incubator with 5% CO2. Once the cell density reached 70-90%, they were passaged for subsequent experiments.
(§4) (2) Cell seeding: Cells were digested, and the cell suspension was transferred to a 1.5 mL Eppendorf tube. After centrifugation at 1,000 rpm for 5 min, the cells were resuspended in 2 mL of culture medium and counted. The cell suspension was seeded in a 24-well plate at a density of 200,000 cells per well and allowed to adhere for 8-12 h.
(§5) (3) Compound treatment: The 50 mM compound stock solution was diluted with cell culture medium to a final concentration of 0.01 μM-3 μM. Cells were incubated in a 37 °C incubator with 5% CO2 for 3 h-48 h. The DMSO group served as the negative control.
(§6) At the end of the treatment time, the cells were collected and washed once with PBS. An appropriate volume of 4% SDS was added to lyse the cells, and the mixture was sonicated until no longer viscous. After centrifugation at 12,000 rpm at room temperature for 30 min, the supernatant was transferred to a new EP tube for protein quantification.
(§7) The exposure results were quantitatively analyzed using Image J software. First, the grayscale values of the bands were calculated using Image J. Then, the grayscale value of the target protein was divided by the grayscale value of the internal reference protein for normalization. The calculation formula is: […]
(§8) Where A is the grayscale value and D is the degradation rate.
(§9) In the figures, CDK12 and CDK13 are the target proteins under study, and β-Actin and GAPDH are the internal reference proteins. Internal reference proteins are used to indicate the total protein amount in each experimental group for quantitative analysis.

[2] = molecular target: CDK13 (Homo sapiens, UniProt Q14004); assay: Western blot degradation of CDK13 (Example 2); type: cell-based; parameters: degradation of CDK12/13 protein in leukemia cells KASUMI-1, MV4-11, and Jurkat; endogenous in cells; conditions: DC50 classes, cell line not given; for DC50: read-out: CDK13 degradation Activity
CDK13, sequence (Q14004 whole entry): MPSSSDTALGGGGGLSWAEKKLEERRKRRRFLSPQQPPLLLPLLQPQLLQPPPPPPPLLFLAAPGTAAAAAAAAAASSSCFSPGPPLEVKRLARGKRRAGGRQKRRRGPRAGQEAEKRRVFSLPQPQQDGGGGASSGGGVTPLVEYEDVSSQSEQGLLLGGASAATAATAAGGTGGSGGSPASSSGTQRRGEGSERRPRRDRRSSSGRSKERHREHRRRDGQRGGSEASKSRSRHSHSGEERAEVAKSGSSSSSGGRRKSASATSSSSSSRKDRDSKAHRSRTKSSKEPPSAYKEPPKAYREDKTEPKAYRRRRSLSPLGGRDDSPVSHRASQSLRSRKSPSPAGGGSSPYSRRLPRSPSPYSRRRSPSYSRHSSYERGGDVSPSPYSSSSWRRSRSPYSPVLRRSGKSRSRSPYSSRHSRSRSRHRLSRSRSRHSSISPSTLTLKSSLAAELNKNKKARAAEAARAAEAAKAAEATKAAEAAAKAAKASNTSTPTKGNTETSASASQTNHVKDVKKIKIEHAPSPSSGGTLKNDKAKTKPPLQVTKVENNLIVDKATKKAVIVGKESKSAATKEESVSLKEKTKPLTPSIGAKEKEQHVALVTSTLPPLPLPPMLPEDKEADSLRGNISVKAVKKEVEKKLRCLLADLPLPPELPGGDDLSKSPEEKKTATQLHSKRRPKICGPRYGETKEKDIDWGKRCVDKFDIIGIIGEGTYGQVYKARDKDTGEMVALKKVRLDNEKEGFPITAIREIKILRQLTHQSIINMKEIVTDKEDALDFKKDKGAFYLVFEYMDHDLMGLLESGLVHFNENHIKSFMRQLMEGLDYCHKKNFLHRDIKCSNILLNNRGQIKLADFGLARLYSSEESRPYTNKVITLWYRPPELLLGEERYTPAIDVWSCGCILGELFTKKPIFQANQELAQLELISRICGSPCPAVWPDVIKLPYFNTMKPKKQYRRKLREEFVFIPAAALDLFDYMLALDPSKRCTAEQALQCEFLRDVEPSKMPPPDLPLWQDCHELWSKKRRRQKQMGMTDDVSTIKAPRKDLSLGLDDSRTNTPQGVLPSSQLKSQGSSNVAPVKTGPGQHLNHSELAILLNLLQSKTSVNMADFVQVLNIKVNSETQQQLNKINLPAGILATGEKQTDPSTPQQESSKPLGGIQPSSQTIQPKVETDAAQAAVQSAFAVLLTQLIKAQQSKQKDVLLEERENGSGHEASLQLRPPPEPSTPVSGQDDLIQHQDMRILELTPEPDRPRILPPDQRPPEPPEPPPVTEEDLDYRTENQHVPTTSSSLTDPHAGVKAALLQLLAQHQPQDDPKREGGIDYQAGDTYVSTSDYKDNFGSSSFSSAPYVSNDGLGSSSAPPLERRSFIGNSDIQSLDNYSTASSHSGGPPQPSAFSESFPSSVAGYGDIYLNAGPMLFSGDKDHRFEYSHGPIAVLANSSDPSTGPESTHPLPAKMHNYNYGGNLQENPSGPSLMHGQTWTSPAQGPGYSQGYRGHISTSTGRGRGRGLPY
CDK13, sequence (O75909 whole entry partner): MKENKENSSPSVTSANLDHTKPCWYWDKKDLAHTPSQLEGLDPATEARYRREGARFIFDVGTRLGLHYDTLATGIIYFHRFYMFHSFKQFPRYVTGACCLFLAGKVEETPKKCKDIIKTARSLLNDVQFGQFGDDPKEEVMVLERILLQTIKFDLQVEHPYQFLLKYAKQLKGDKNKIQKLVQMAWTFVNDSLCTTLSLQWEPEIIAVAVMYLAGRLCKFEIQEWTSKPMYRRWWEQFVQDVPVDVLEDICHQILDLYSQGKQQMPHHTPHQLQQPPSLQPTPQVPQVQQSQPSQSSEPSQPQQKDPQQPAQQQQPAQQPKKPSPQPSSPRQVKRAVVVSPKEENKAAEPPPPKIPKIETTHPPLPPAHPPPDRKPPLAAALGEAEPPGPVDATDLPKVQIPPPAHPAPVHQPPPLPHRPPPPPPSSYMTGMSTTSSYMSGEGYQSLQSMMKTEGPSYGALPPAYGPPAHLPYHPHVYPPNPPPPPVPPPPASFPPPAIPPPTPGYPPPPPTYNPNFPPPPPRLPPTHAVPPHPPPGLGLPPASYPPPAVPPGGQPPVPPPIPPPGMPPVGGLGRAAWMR
Protocol: as §1, §2, §3, §4, §5, §6, §7, §8, §9

CDK12, sequence (Q9NYV4 whole entry): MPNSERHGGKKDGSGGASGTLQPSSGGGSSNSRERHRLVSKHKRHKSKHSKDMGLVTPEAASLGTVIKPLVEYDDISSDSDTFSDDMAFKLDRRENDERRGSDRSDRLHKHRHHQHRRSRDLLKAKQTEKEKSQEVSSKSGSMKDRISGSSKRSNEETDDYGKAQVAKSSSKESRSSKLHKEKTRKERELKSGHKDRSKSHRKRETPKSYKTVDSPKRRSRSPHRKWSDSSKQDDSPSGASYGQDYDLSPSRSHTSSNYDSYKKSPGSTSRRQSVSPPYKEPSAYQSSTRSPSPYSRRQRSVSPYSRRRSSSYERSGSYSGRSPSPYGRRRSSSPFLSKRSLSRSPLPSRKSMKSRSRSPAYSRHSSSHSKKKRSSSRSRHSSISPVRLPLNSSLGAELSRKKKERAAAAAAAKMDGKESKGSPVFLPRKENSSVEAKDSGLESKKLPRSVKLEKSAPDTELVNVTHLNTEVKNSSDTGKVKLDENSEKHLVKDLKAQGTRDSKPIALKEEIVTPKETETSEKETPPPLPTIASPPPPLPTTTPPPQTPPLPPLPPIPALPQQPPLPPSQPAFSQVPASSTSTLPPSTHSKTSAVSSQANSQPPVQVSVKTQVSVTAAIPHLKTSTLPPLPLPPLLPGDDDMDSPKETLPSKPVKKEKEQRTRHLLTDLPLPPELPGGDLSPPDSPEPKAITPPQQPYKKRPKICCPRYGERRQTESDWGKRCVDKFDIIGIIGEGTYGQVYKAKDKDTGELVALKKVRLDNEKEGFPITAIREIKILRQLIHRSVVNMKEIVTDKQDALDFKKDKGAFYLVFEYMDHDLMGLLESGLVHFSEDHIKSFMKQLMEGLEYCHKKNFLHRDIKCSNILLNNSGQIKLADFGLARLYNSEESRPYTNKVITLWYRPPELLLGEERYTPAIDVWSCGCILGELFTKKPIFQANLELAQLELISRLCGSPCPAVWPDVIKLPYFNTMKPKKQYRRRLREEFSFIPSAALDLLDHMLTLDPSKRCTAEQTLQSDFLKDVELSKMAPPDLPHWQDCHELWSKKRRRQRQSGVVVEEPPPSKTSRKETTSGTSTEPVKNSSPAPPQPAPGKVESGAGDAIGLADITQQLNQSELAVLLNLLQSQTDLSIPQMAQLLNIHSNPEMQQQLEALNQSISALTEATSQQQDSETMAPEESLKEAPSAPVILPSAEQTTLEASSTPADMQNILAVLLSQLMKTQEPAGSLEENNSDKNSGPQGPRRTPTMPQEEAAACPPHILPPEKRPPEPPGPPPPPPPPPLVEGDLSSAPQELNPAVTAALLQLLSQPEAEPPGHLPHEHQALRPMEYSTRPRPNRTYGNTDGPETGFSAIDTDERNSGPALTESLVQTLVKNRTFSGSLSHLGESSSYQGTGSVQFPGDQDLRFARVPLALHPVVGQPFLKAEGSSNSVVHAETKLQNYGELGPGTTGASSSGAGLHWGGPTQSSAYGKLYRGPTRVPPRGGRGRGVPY
CDK12, sequence (O75909 whole entry partner): as the sequence (O75909 whole entry partner) above

| Compound | DC50 [1] | DC50 [2] | CDK12 degradation Activity [1] | CDK13 degradation Activity [2] |
| --- | --- | --- | --- | --- |
| Cc1ncsc1-c1ccc([C@H](C)NC(=O)[C@@H]2C[C@@H](O)CN2C(=O)[C@@H](NC(=O)CC2CCN(c3ccc(-c4ccc(N(C(=O)NCc5ccccc5)[C@H]5CC[C@H](Nc6ccc(C#N)cn6)CC5)cc4)cn3)C2)C(C)(C)C)cc1 (stereo partly shown) [Formula 30] | 0.5 to 1 µM | 0.5 to 1 µM |  |  |
| Cc1ncsc1-c1ccc([C@H](C)NC(=O)[C@@H]2C[C@@H](O)CN2C(=O)[C@@H](NC(=O)CN2CCC(n3cc(-c4ccc(N(C(=O)NCc5ccccc5)[C@H]5CC[C@H](Nc6ccc(C#N)cn6)CC5)cc4)cn3)CC2)C(C)(C)C)cc1 [Formula 31] | 1 to 3 µM | 3 to 10 µM |  |  |
| N#Cc1ccc(N[C@H]2CC[C@H](N(C(=O)NCc3ccccc3)c3ccc(-c4ccc(OCCOCCNc5cccc6c5C(=O)N(C5CCC(=O)NC5=O)C6=O)nc4)cc3)CC2)nc1 (stereo partly shown) [Formula 32] | 1 to 3 µM | 0.5 to 1 µM |  |  |
| N#Cc1ccc(N[C@H]2CC[C@H](N(C(=O)NCc3ccccc3)c3ccc(-c4ccc(OCCOCCOCCOCCOCCNc5cccc6c5C(=O)N(C5CCC(=O)NC5=O)C6=O)nc4)cc3)CC2)nc1 (stereo partly shown) [Formula 35] | 1 to 3 µM | 3 to 10 µM |  |  |
| N#Cc1ccc(N[C@H]2CC[C@H](N(C(=O)NCc3ccccc3)c3ccc(-c4ccc(OCCOCCOCCOCCOCCOCCNc5cccc6c5C(=O)N(C5CCC(=O)NC5=O)C6=O)nc4)cc3)CC2)nc1 (stereo partly shown) [Formula 36] |  |  | − | − |
| N#Cc1ccc(N[C@H]2CC[C@H](N(C(=O)NCc3ccccc3)c3ccc(-c4ccc(OCCNc5cccc6c5C(=O)N(C5CCC(=O)NC5=O)C6=O)nc4)cc3)CC2)nc1 (stereo partly shown) [Formula 37] | 1 to 3 µM | 0.5 to 1 µM |  |  |
| N#Cc1ccc(N[C@H]2CC[C@H](N(C(=O)NCc3ccccc3)c3ccc(N4CCN(CCOCCNc5cccc6c5C(=O)N(C5CCC(=O)NC5=O)C6=O)CC4)cc3)CC2)nc1 (stereo partly shown) [Formula 38] | 0.5 to 1 µM | 1 to 3 µM |  |  |
| N#Cc1ccc(N[C@H]2CC[C@H](N(C(=O)NCc3ccccc3)c3ccc(N4CCN(CCOCCOCCNc5cccc6c5C(=O)N(C5CCC(=O)NC5=O)C6=O)CC4)cc3)CC2)nc1 (stereo partly shown) [Formula 39] | 1 to 3 µM | 3 to 10 µM |  |  |
| N#Cc1ccc(N[C@H]2CC[C@H](N(C(=O)NCc3ccccc3)c3ccc(N4CCN(CCOCCOCCOCCNc5cccc6c5C(=O)N(C5CCC(=O)NC5=O)C6=O)CC4)cc3)CC2)nc1 (stereo partly shown) [Formula 40] | 0.5 to 1 µM | 1 to 3 µM |  |  |
| N#Cc1ccc(N[C@H]2CC[C@H](N(C(=O)NCc3ccccc3)c3ccc(N4CCN(CCOCCOCCOCCOCCNc5cccc6c5C(=O)N(C5CCC(=O)NC5=O)C6=O)CC4)cc3)CC2)nc1 (stereo partly shown) [Formula 41] | 1 to 3 µM | 1 to 3 µM |  |  |
| N#Cc1ccc(N[C@H]2CC[C@H](N(C(=O)NCc3ccccc3)c3ccc(N4CCN(CCNc5cccc6c5C(=O)N(C5CCC(=O)NC5=O)C6=O)CC4)cc3)CC2)nc1 (stereo partly shown) [Formula 42] | 1 to 3 µM | 1 to 3 µM |  |  |
| CCNC(=O)N(c1ccc(-c2ccc(OCCOCCOCCOCCNc3cccc4c3C(=O)N(C3CCC(=O)NC3=O)C4=O)nc2)cc1)[C@H]1CC[C@H](Nc2ccc(C#N)cn2)CC1 (stereo partly shown) [Formula 43] | 1 to 3 µM | 1 to 3 µM |  |  |
| CCNC(=O)N(c1ccc(-c2ccc(N3CCN(CC(=O)N[C@H](C(=O)N4C[C@H](O)C[C@H]4C(=O)N[C@@H](C)c4ccc(-c5scnc5C)cc4)C(C)(C)C)CC3)nc2)cc1)[C@H]1CC[C@H](Nc2ccc(C#N)cn2)CC1 [Formula 44] | 0.5 to 1 µM | 0.1 to 0.5 µM |  |  |
| N#Cc1ccc(N[C@H]2CC[C@H](N(C(=O)NCc3ccccc3)c3ccc(-c4ccc(=O)n(CCOCCNc5cccc6c5C(=O)N(C5CCC(=O)NC5=O)C6=O)c4)cc3)CC2)nc1 (stereo partly shown) [Formula 46] | 1 to 3 µM | 0.5 to 1 µM |  |  |
| N#Cc1ccc(N[C@H]2CC[C@H](N(C(=O)NCc3ccccc3)c3ccc(-c4ccc(=O)n(CCOCCOCCOCCNc5cccc6c5C(=O)N(C5CCC(=O)NC5=O)C6=O)c4)cc3)CC2)nc1 (stereo partly shown) [Formula 48] | 3 to 10 µM |  |  | − |
| N#Cc1ccc(N[C@H]2CC[C@H](N(C(=O)NCc3ccccc3)c3ccc(-c4ccc(=O)n(CCOCCOCCOCCOCCNc5cccc6c5C(=O)N(C5CCC(=O)NC5=O)C6=O)c4)cc3)CC2)nc1 (stereo partly shown) [Formula 49] | 0.5 to 1 µM | 1 to 3 µM |  |  |
| N#Cc1ccc(N[C@H]2CC[C@H](N(C(=O)NCc3ccccc3)c3ccc(-c4ccc(=O)n(CCOCCOCCOCCOCCOCCNc5cccc6c5C(=O)N(C5CCC(=O)NC5=O)C6=O)c4)cc3)CC2)nc1 (stereo partly shown) [Formula 50] | 3 to 10 µM | 3 to 10 µM |  |  |
| Cc1ncsc1-c1ccc([C@H](C)NC(=O)[C@@H]2C[C@@H](O)CN2C(=O)[C@@H](NC(=O)N2CCC3(CC2)CCN(c2ccc(N(C(=O)NCc4ccccc4)[C@H]4CC[C@H](Nc5ccc(C#N)cn5)CC4)cc2)CC3)C(C)(C)C)cc1 [Formula 51] | 3 to 10 µM | 3 to 10 µM |  |  |
| Cc1ncsc1-c1ccc([C@H](C)NC(=O)[C@@H]2C[C@@H](O)CN2C(=O)[C@@H](NC(=O)N2CCC3(CC2)CCN(c2ccc(N(C(=O)NCc4ccccc4)[C@H]4CC[C@H](Nc5ccc(C#N)cn5)CC4)cn2)CC3)C(C)(C)C)cc1 [Formula 52] | 3 to 10 µM |  |  | − |
| Cc1ncsc1-c1ccc([C@H](C)NC(=O)[C@@H]2C[C@@H](O)CN2C(=O)[C@@H](NC(=O)N2CCN(c3ccc(N(C(=O)NCc4ccccc4)[C@H]4CC[C@H](Nc5ncc6ccccc6n5)CC4)cc3)CC2)C(C)(C)C)cc1 [Formula 53] | 3 to 10 µM | 1 to 3 µM |  |  |
| Cc1ncsc1-c1ccc([C@H](C)NC(=O)[C@@H]2C[C@@H](O)CN2C(=O)[C@@H](NC(=O)N2CC3(CCN(c4ccc(N(C(=O)NCc5ccccc5)[C@H]5CC[C@H](Nc6ncc(C#N)cn6)CC5)cc4)CC3)C2)C(C)(C)C)cc1 [Formula 54] |  |  | − | − |
| Cc1ncsc1-c1ccc([C@H](C)NC(=O)[C@@H]2C[C@@H](O)CN2C(=O)[C@@H](NC(=O)N2CC3(CCN(c4ccc(N(C(=O)NCc5ccccc5)[C@H]5CC[C@H](Nc6ccc(C#N)cn6)CC5)cc4)CC3)C2)C(C)(C)C)cc1 [Formula 55] |  |  | − | − |
| Cc1ncsc1-c1ccc([C@H](C)NC(=O)[C@@H]2C[C@@H](O)CN2C(=O)[C@@H](NC(=O)COCCn2cc(-c3ccc(N(C(=O)NCc4ccccc4)[C@H]4CC[C@H](Nc5ccc(C#N)cn5)CC4)cc3)ccc2=O)C(C)(C)C)cc1 [Formula 56] |  |  | − | − |
| Cc1ncsc1-c1ccc([C@H](C)NC(=O)[C@@H]2C[C@@H](O)CN2C(=O)[C@@H](NC(=O)COCCOCCn2cc(-c3ccc(N(C(=O)NCc4ccccc4)[C@H]4CC[C@H](Nc5ccc(C#N)cn5)CC4)cc3)ccc2=O)C(C)(C)C)cc1 [Formula 57] |  |  | − | − |
| Cc1ncsc1-c1ccc([C@H](C)NC(=O)[C@@H]2C[C@@H](O)CN2C(=O)[C@@H](NC(=O)COCCOCCOCCn2cc(-c3ccc(N(C(=O)NCc4ccccc4)[C@H]4CC[C@H](Nc5ccc(C#N)cn5)CC4)cc3)ccc2=O)C(C)(C)C)cc1 [Formula 58] |  |  | − | − |
| Cc1ncsc1-c1ccc([C@H](C)NC(=O)[C@@H]2C[C@@H](O)CN2C(=O)[C@@H](NC(=O)COCCOCCOCCOCCn2cc(-c3ccc(N(C(=O)NCc4ccccc4)[C@H]4CC[C@H](Nc5ccc(C#N)cn5)CC4)cc3)ccc2=O)C(C)(C)C)cc1 [Formula 59] | 1 to 3 µM | 1 to 3 µM |  |  |
| Cc1ncsc1-c1ccc([C@H](C)NC(=O)[C@@H]2C[C@@H](O)CN2C(=O)[C@@H](NC(=O)COCCOCCOCCOCCOCCn2cc(-c3ccc(N(C(=O)NCc4ccccc4)[C@H]4CC[C@H](Nc5ccc(C#N)cn5)CC4)cc3)ccc2=O)C(C)(C)C)cc1 [Formula 60] | 1 to 3 µM | 0.5 to 1 µM |  |  |
| Cc1ncsc1-c1ccc([C@H](C)NC(=O)[C@@H]2C[C@@H](O)CN2C(=O)[C@@H](NC(=O)Cn2cc(-c3ccc(N(C(=O)NCc4ccccc4)[C@H]4CC[C@H](Nc5ncc(C#N)cn5)CC4)cc3)ccc2=O)C(C)(C)C)cc1 [Formula 61] |  |  | − | − |
| Cc1ncsc1-c1ccc([C@H](C)NC(=O)[C@@H]2C[C@@H](O)CN2C(=O)[C@@H](NC(=O)COCCOc2ccc(-c3ccc4c(c3)CN(Cc3ccccc3)C(=O)N4[C@H]3CC[C@H](Nc4ccc(C#N)cn4)CC3)cn2)C(C)(C)C)cc1 [Formula 62] | 0.5 to 1 µM | 0.5 to 1 µM |  |  |

Reference: patent US20260327204A1, “DEGRADERS OF CYCLIN-DEPENDENT KINASE 12/13, COMPOSITIONS, AND USES THEREOF” (ZHEJIANG UNIVERSITY, priority 2023, published 2026)
